Experiment in all cases: growth of human tumour cells (NCI), 48 h
The test system of experiment [1] is COLO 205 colon.
Experiment [2] has as its system A549 NSCLC.
For experiment [3], the system named is NCI/ADR-RES ovarian.
The test system of experiment [4] is MOLT-4 leukemia.
Experiment [5] concerns MCF7 breast.
Experiment [6] concerns SK-OV-3 ovarian.
Experiment [7] relates to UO-31 renal.
The subject of experiment [8] is EKVX NSCLC.
Experiment [9] has as its system MALME-3M melanoma.
Experiment [10] concerns UACC-62 melanoma.

Among the data in PubChem BioAssay (NCI) are GI50 and TGI values, retold here.

SMILES strings stand for the structures.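 Protocol summary: plate cells (96-well), add compound at 5 concentrations, incubate 48 h, interpolate endpoints linearly. GI50: concentration for 50% inhibition of growth. TGI marks complete inhibition of growth.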

`C=CC(=O)N1CC2(CCN(c3nc(OC4CCN(CCCOC)CC4)nc4c(OCC(F)(F)F)c(-c5c(C)ccc6[nH]ncc56)c(C5CC5)cc34)CC2)C1`: the GI50 in experiment [1] is 1.97 µM; in experiment [2], 3.45 µM; in experiment [3] it was 14.8 µM; in experiment [4], 1.67 µM; in experiment [5] it was 1.67 µM; in [6], 8.57 µM. The GI50 was 1.7 µM in [7], 4.33 µM in experiment [8], 1.66 µM in [9] and 5.27 µM in experiment [10]. Also, the TGI in experiment [1] was 3.73 µM; in experiment [2], 17.6 µM; in experiment [3], 36.6 µM; in [4], 6.06 µM; in experiment [5], 3.37 µM; in [6], 23.8 µM. In addition, the TGI came out at 3.13 µM in experiment [7], 16.9 µM in experiment [8], 3.14 µM in experiment [9] and 18.9 µM in experiment [10].

With `CCN(CC)c1ccc(/C=C/c2ccc3cc(C)ccc3[n+]2CC)cc1`, the GI50 in [1] is 0.124 µM; in experiment [2] it was 0.119 µM; in experiment [3], 5.69 µM; in experiment [4], 0.161 µM; in experiment [5], 0.0773 µM; in [6], 0.141 µM. Besides, the GI50 is 0.691 µM in experiment [7], 0.0787 µM in [8], 0.149 µM in experiment [9] and 0.152 µM in experiment [10]. The TGI amounted to 0.516 µM in experiment [1]; 14.6 µM in experiment [2]; 47.4 µM in experiment [3]; 2.65 µM in experiment [4]; 3.26 µM in [5]; 0.732 µM in experiment [6]. In addition, the TGI stood at 7.45 µM in [7], 13.2 µM in [8], 1.33 µM in experiment [9] and 1.37 µM in experiment [10].

Regarding `CN1CCN(C)C12C=c1ccccc1=CC21CC1`, the TGI is 25.6 µM in experiment [1]; over 100 µM in [2]; over 100 µM in [3]; 54.8 µM in experiment [4]; over 100 µM in experiment [5]; over 100 µM in experiment [6]. In addition, the TGI in [7] was over 100 µM; in [8] it was over 100 µM; in [9] it was 59 µM; in experiment [10], 34 µM.

As for `Nc1nc(Cl)c2ncn(Cc3ccc(C45CC6CC(CC(C6)C4)C5)c(O)c3)c2n1`, the GI50 was 5.43 µM in experiment [1]; 1.29 µM in [2]; 3.15 µM in [3]; 1.25 µM in experiment [4]; 3.14 µM in [5]; 5.64 µM in experiment [6]. Moreover, the GI50 in experiment [7] was 12.7 µM; in experiment [8] it was 2.99 µM; in experiment [9], 2.22 µM; in [10], 4.07 µM. For the same compound, the TGI in [1] was found to be 27.8 µM; in experiment [2], 3.17 µM; in experiment [3], 16.4 µM; in experiment [4], 16.2 µM; in [5], 13 µM; in experiment [6], 21.4 µM. The TGI was 28.1 µM in experiment [7], 21.8 µM in experiment [8], 16.3 µM in [9] and 18.5 µM in [10].

Consider `Cn1c2ccccc2c2c(-c3ccccc3)[n+]3ccncc3nc21`, for which the GI50 is 29.5 µM in [1]; over 100 µM in experiment [2]; over 100 µM in experiment [3]; over 100 µM in experiment [4]; 63.6 µM in experiment [5]; over 100 µM in experiment [6]. The GI50 in experiment [7] was over 100 µM; in experiment [8] it was 51.4 µM; in [9], 93.8 µM; in [10], over 100 µM. For the same compound, the TGI in experiment [1], in [2], in experiment [3], in experiment [4], in experiment [5] and in [6] was over 100 µM each time. Also, the TGI in experiment [7], in [8], in experiment [9] and in experiment [10] was over 100 µM throughout.

As for `O=C(/C(Br)=C/c1ccccc1)c1ccccc1`, the GI50 in experiment [1] is 1.09 µM; in experiment [2], 14.2 µM; in [3], 2.24 µM; in experiment [4], 2.23 µM; in [5] it was 4.79 µM; in [6] it was 16 µM. Further, the GI50 was 1.36 µM in experiment [7], 10.6 µM in experiment [8], 1.75 µM in experiment [9] and 1.94 µM in experiment [10]. Also, the TGI in experiment [1] was 2.41 µM; in experiment [2], 28.5 µM; in experiment [3], 6.48 µM; in [4], 6.95 µM; in [5] it was 52.9 µM; in experiment [6], 34.6 µM. Further, the TGI in [7] was found to be 3.35 µM; in experiment [8] it was 23.3 µM; in [9] it was 3.9 µM; in experiment [10] it was 3.81 µM.

On to `CC[CH2][Sn]([CH2]CC)([O]C(=O)c1cccnc1SC)[O][Sn]([CH2]CC)([CH2]CC)[O]C(=O)c1cccnc1SC`, for which the GI50 in [1] was 0.396 µM; in [2], 3.2 µM; in experiment [3], 1.49 µM; in experiment [4] it was 0.149 µM; in [5], 0.495 µM; in [6] it was 1.53 µM. In addition, the GI50 in [7] is 0.844 µM; in experiment [8], 0.699 µM; in [9], 0.237 µM; in [10], 0.343 µM. Further, the TGI in [1] was 1.08 µM; in [2] it was 6.24 µM; in experiment [3] it was 3.24 µM; in [4], over 16.6 µM; in [5], 1.72 µM; in experiment [6] it was 3.61 µM. The TGI is 2.14 µM in experiment [7], 2.85 µM in experiment [8], 0.566 µM in experiment [9] and 0.809 µM in [10].

Regarding `CC1(C)OC2[C@@H](CNC(=O)NC(=O)NC(=O)CI)O[C@@H](n3cnc4c(NC(=O)Nc5ccccc5)ncnc43)[C@H]2O1` (stereo not given in full), the GI50 was 6.44 µM in [1]; over 50 µM in [2]; 16.4 µM in experiment [3]; 1.86 µM in [4]; 6.17 µM in experiment [5]; 22.2 µM in experiment [6]. Also, the GI50 in [7] was 1.34 µM; in [8], 28.4 µM; in [9] it was 1.12 µM; in experiment [10], 8.44 µM. Also, the TGI is 14.5 µM in experiment [1]; over 50 µM in experiment [2]; over 50 µM in experiment [3]; 9.28 µM in [4]; 14.2 µM in experiment [5]; over 50 µM in [6]. Besides, the TGI was 4.27 µM in [7], over 50 µM in [8], 2.9 µM in [9] and 17.1 µM in experiment [10].

On to `C[C@]12CC[C@H]3[C@@H](CC=C4C[C@@H](O)CC[C@@]43C)[C@@H]1CC[C@@H]2N(CCO)CCO`, for which the TGI in experiment [1], in [2], in experiment [3], in experiment [4], in experiment [5] and in [6] was over 100 µM throughout. For the same compound, the TGI in [7] was over 100 µM; in experiment [8], 78.1 µM; in [9] it was over 100 µM; in experiment [10], over 100 µM.

Turning to `Oc1c(CN2CCC(N3CCCCC3)CC2)cc(Cc2cc(CN3CCC(N4CCCCC4)CC3)c(O)c3ncccc23)c2cccnc12`, the GI50 in experiment [1] is 0.372 µM; in experiment [2], 1.61 µM; in experiment [3] it was 3.12 µM; in [4] it was 0.3 µM; in [5] it was 0.865 µM; in experiment [6], 1.21 µM. The GI50 in experiment [7] is 1 µM; in experiment [8], 0.57 µM; in experiment [9] it was 1.79 µM; in [10] it was 0.609 µM. For the same compound, the TGI in [1] turned out to be 1.94 µM; in [2] it was 5.75 µM; in experiment [3], 17.9 µM; in experiment [4], 6.22 µM; in experiment [5] it was 10.3 µM; in experiment [6], 5.08 µM. The TGI in experiment [7] stood at 4.22 µM; in [8], 15.5 µM; in experiment [9] it was 4.26 µM; in [10], 5.17 µM.

For `CC[C@@H]1CN(C)[C@H]2Cc3c([nH]c4ccccc34)C(=O)C[C@H]1C2C(=O)OC` (stereo not given in full), the TGI in [1], in [2], in experiment [3], in experiment [4], in [5] and in [6] was over 100 µM throughout. Further, the TGI in experiment [7], in [8], in experiment [9] and in [10] was over 100 µM throughout.

On to `COC1/C=C\C=C(/C)C(=O)NC2=CC(=O)C(=O)C(=C2O)CC(C)CC(OC)C(O)C(C)/C=C(\C)C1OC(N)=O` (stereo not given), for which the TGI in [1] was 13.3 µM; in [2], over 100 µM; in [3] it was over 100 µM; in [4] it was over 52.3 µM; in [5] it was over 42.4 µM; in experiment [6], over 100 µM. In addition, the TGI is 39.8 µM in experiment [7], 32.7 µM in experiment [8], 21.7 µM in experiment [9] and over 32.6 µM in experiment [10].
